The values that follow are results of earlier work, collected in patent publication US12240810B2, “Chiral-substituted poly-N-vinylpyrrolidinones and complexes with bimetallic nanoclusters and uses thereof in asymmetric oxidation reactions” (Kansas State University Research Foundation, priority 2019, dated 2025).

For this series, the system named is Staphylococcus aureus. The note with it: antibacterial activity, background statement on the natural product.

Values after ≈ are worked out from the molar mass of the structure shown.

Turning to `CC=CCCCC[C@@]1(O)[C@H](C)C(=O)N2CCC[C@@]21CO` [compound 113, (−)-Penibruguieramine A], the MIC value was 6.4 µg/mL (≈ 22.7 µM).
